The text below walks through data of US10189840B2, “Substituted tricyclic heterocyclic compounds” (BRISTOL-MYERS SQUIBB COMPANY, priority 2015, dated 2019).

Each structure is given as a SMILES string. pIC50: −log10 of the molar value.

Chain of TNFα (P01375 77-233): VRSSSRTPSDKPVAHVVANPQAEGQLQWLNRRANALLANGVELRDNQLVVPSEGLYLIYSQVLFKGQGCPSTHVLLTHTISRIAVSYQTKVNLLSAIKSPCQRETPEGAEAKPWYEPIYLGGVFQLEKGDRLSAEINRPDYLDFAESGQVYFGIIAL

This assay concerns the target TNFα (Homo sapiens (Human), UniProt P01375). The experiment in a line: TNF induced HEK-Blue assay. Particulars: TNFα 0.5 ng/ml; HEK-Blue-CD40L cells, NF-κB-driven secreted alkaline phosphatase reporter; 18 h. In kind it is cell-based. The protocol:
Test compounds serially diluted in DMSO were plated in an assay plate (Labcyte, Cat. #LP-0200) at final concentrations ranging from 0.004 μM to 25 μM. TNFα (final concentration 0.5 ng/ml) or CD40L (final concentration 30 ng/ml) in assay buffer [DMEM, 4.5 g/l glucose (Gibco, Cat. 21063-029), 10% FBS (Sigma, F4135), 1% Penicillin-Streptomycin (Gibco, Cat. 15140-122), 1% Anti-Anti (Gibco, Cat. 15240-112) and 2 mM L-glutamine (Gibco, Cat. 25030-081)] was then added to the assay plate. After a 30 minute pre-incubation at 37° C. and 5% CO2, HEK-Blue-CD40L cells (InvivoGen, Cat. Code hkb-cd40) containing a NF-κB-driven secreted alkaline phosphatase reporter gene were seeded into the assay plate at a density of 20,000 cells per well. This plate was then incubated for 18 h at 37° C. and 5% CO2. Secreted alkaline phosphatase expression was measured using QUANTI-Blue (InvivoGen, Cat. Code rep-qb1) according to manufacturer's specifications and the assay plate was read on a PerkinElmer Envision at 620 nm.
Inhibition data for the test compound over a range of concentrations was plotted as percentage inhibition of the test compound (100%=maximum inhibition). IC50 values were determined after correcting for background [(sample read−mean of low control)/(mean of high control−mean of low control)] where by the low control is DMSO without stimulation and high control is DMSO with stimulation. The IC50 is defined as the concentration of test compound which produces 50% inhibition and was quantified using the 4 parameter logistic equation to fit the data.
Table 5 lists the IC50 values measured in the TNF induced HEK-Blue assay for Examples 1 to 40 of this invention.
In turn, `COc1ccccc1C1CC(O)c2nc3ccc(-c4ccc(C(C)(C)O)cc4)nc3n21` (single isomer, unassigned) [Example 12 (e3), 2-(4-(2-hydroxypropan-2-yl)phenyl)-8-(2-methoxyphenyl)-7,8-dihydro-6H-pyrrolo[2′,1′:2,3]imidazo[4,5-b]pyridin-6-ol] showed a pIC50 of 4.60 to 5.00.

For `COc1ccccc1C1CC(O)c2nc3ccc(-c4ccc(C(C)(C)O)cc4)nc3n21` (single isomer, unassigned) [Example 12 (e4), 2-(4-(2-hydroxypropan-2-yl)phenyl)-8-(2-methoxyphenyl)-7,8-dihydro-6H-pyrrolo[2′,1′:2,3]imidazo[4,5-b]pyridin-6-ol], the pIC50 was 5.00 to 6.00. `CC(C)(O)c1ccc(-c2ccc3nc4n(c3n2)C(c2cc(F)ccc2C(F)(F)F)CC4O)cc1` (single isomer, unassigned) [Example 13 (e1), 8-(5-fluoro-2-(trifluoromethyl)phenyl)-2-(4-(2-hydroxypropan-2-yl)phenyl)-7,8-dihydro-6H-pyrrolo[2′,1′:2,3]imidazo[4,5-b]pyridin-6-ol] gave a pIC50 above 6.00. In turn, `CC(C)(O)c1ccc(-c2ccc3nc4n(c3n2)C(c2cc(F)ccc2C(F)(F)F)CC4O)cc1` (single isomer, unassigned) [Example 13 (e2), 8-(5-fluoro-2-(trifluoromethyl)phenyl)-2-(4-(2-hydroxypropan-2-yl)phenyl)-7,8-dihydro-6H-pyrrolo[2′,1′:2,3]imidazo[4,5-b]pyridin-6-ol] gave a negative-log IC50 (pIC50) of 5.00 to 6.00.

In the case of `CC(C)(O)c1ccc(-c2ccc3nc4n(c3n2)C(c2cc(F)ccc2C(F)(F)F)CC4O)cc1` (single isomer, unassigned) [Example 13 (e3), 8-(5-fluoro-2-(trifluoromethyl)phenyl)-2-(4-(2-hydroxypropan-2-yl)phenyl)-7,8-dihydro-6H-pyrrolo[2′,1′:2,3]imidazo[4,5-b]pyridin-6-ol], the pIC50 is 5.00 to 6.00. Consider `CC(C)(O)c1ccc(-c2ccc3nc4n(c3n2)C(c2cc(F)ccc2C(F)(F)F)CC4O)cc1` (single isomer, unassigned) [Example 13 (e4), 8-(5-fluoro-2-(trifluoromethyl)phenyl)-2-(4-(2-hydroxypropan-2-yl)phenyl)-7,8-dihydro-6H-pyrrolo[2′,1′:2,3]imidazo[4,5-b]pyridin-6-ol], for which the pIC50 was 5.00 to 6.00. With `CC(C)(O)c1ccc(-c2ccc3nc4n(c3n2)C(c2ccccc2C(F)(F)F)CC4F)cc1` (single isomer, unassigned) [Example 14 (e1), 2-(4-(6-Fluoro-8-(2-(trifluoromethyl)phenyl)-7,8-dihydro-6H-pyrrolo[2′,1′:2,3]imidazo[4,5-b]pyridin-2-yl)phenyl)propan-2-ol], the pIC50 is 5.00 to 6.00.

The compound `CC(C)(O)c1ccc(-c2ccc3nc4n(c3n2)C(c2ccccc2C(F)(F)F)CC4F)cc1` (single isomer, unassigned) [Example 14 (e2), 2-(4-(6-Fluoro-8-(2-(trifluoromethyl)phenyl)-7,8-dihydro-6H-pyrrolo[2′,1′:2,3]imidazo[4,5-b]pyridin-2-yl)phenyl)propan-2-ol] showed a pIC50 above 6.00.

`CC(C)(O)c1ccc(-c2ccc3nc4n(c3n2)C(c2ccccc2C(F)(F)F)CC4F)cc1` (single isomer, unassigned) [Example 14 (e3), 2-(4-(6-Fluoro-8-(2-(trifluoromethyl)phenyl)-7,8-dihydro-6H-pyrrolo[2′,1′:2,3]imidazo[4,5-b]pyridin-2-yl)phenyl)propan-2-ol] showed a pIC50 of 5.00 to 6.00. Then `CC(C)(O)c1ccc(-c2ccc3nc4n(c3n2)C(c2ccccc2C(F)(F)F)CC4F)cc1` (single isomer, unassigned) [Example 14 (e4), 2-(4-(6-Fluoro-8-(2-(trifluoromethyl)phenyl)-7,8-dihydro-6H-pyrrolo[2′,1′:2,3]imidazo[4,5-b]pyridin-2-yl)phenyl)propan-2-ol], with above 6.00. In the case of `CC(C)(O)c1ccc(-c2ccc3nc4n(c3n2)C(c2ccccc2OC(F)F)CC4F)cc1` (single isomer, unassigned) [Example 15 (e2), 2-(4-(8-(2-(difluoromethoxy)phenyl)-6-fluoro-7,8-dihydro-6H-pyrrolo[2′,1′:2,3]imidazo[4,5-b]pyridin-2-yl)phenyl)propan-2-ol] it was 4.60 to 5.00.

For the compound `COc1ccc(-c2ccc3nc4n(c3n2)C(c2ccccc2OC(F)F)CC4F)cn1` (single isomer, unassigned) [Example 18 (e1), 8-(2-(difluoromethoxy)phenyl)-6-fluoro-2-(6-methoxypyridin-3-yl)-7,8-dihydro-6H-pyrrolo[2′,1′:2,3]imidazo[4,5-b]pyridine], the pIC50 was above 6.00. Then `COc1ccc(-c2ccc3nc4n(c3n2)C(c2ccccc2OC(F)F)CC4F)cn1` (single isomer, unassigned) [Example 18 (e2), 8-(2-(difluoromethoxy)phenyl)-6-fluoro-2-(6-methoxypyridin-3-yl)-7,8-dihydro-6H-pyrrolo[2′,1′:2,3]imidazo[4,5-b]pyridine], with 4.60 to 5.00; and `CC(C)(O)c1ccc(-c2ccc3nc4n(c3n2)C(c2ccccc2C2CC2)CC4F)cc1` (single isomer, unassigned) [Example 21 (e1), 2-(4-(8-(2-cyclopropylphenyl)-6-fluoro-7,8-dihydro-6H-pyrrolo[2′,1′:2,3]imidazo[4,5-b]pyridin-2-yl)phenyl)propan-2-ol], with above 6.00. As to `CC(C)(O)c1ccc(-c2ccc3nc4n(c3n2)C(c2ccccc2C2CC2)CC4F)cc1` (single isomer, unassigned) [Example 21 (e2), 2-(4-(8-(2-cyclopropylphenyl)-6-fluoro-7,8-dihydro-6H-pyrrolo[2′,1′:2,3]imidazo[4,5-b]pyridin-2-yl)phenyl)propan-2-ol], the pIC50 is 5.00 to 6.00. `CC(C)(O)c1ccc(-c2ccc3nc4n(c3n2)C(c2ccccc2C2CC2)CC4F)cc1` (single isomer, unassigned) [Example 21 (e4), 2-(4-(8-(2-cyclopropylphenyl)-6-fluoro-7,8-dihydro-6H-pyrrolo[2′,1′:2,3]imidazo[4,5-b]pyridin-2-yl)phenyl)propan-2-ol] showed a pIC50 above 6.00. As for `CC(C)(O)c1ccc(-c2ccc3nc4n(c3n2)C(c2ccccc2OC(F)(F)F)CC4F)cc1` (single isomer, unassigned) [Example 22 (e1), 2-(4-(6-fluoro-8-(2-(trifluoromethoxy)phenyl)-7,8-dihydro-6H-pyrrolo[2′,1′:2,3]imidazo[4,5-b]pyridin-2-yl)phenyl)propan-2-ol], the pIC50 was above 6.00.

The compound `CC(C)(O)c1ccc(-c2ccc3nc4n(c3n2)C(c2ccccc2OC(F)(F)F)CC4F)cc1` (single isomer, unassigned) [Example 22 (e2), 2-(4-(6-fluoro-8-(2-(trifluoromethoxy)phenyl)-7,8-dihydro-6H-pyrrolo[2′,1′:2,3]imidazo[4,5-b]pyridin-2-yl)phenyl)propan-2-ol] showed a pIC50 of 5.00 to 6.00. As to `CC(C)(O)c1ccc(-c2ccc3nc4n(c3n2)C(c2ccccc2OC(F)(F)F)CC4F)cc1` (single isomer, unassigned) [Example 22 (e4), 2-(4-(6-fluoro-8-(2-(trifluoromethoxy)phenyl)-7,8-dihydro-6H-pyrrolo[2′,1′:2,3]imidazo[4,5-b]pyridin-2-yl)phenyl)propan-2-ol], the pIC50 is above 6.00.

Usually pIC50 stands for the IC50 on a negative log10 scale, so that one unit is a factor of ten. Low values mean a large IC50, high ones a small IC50.
